{"source": "PubChem BioAssay (NCI)", "note": "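Protocol summary: plate cells (96-well), add compound at 5 concentrations, incubate 48 h, interpolate endpoints linearly. GI50: concentration for 50% inhibition of growth. At the TGI there is no net growth.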", "data": [{"test_system": "HCC-2998 colon", "assay": "inhibition of tumour cell growth, NCI panel, 48 h", "units": {"TGI": "µM", "GI50": "µM"}, "values": [{"smiles": "Oc1c2c(c(O)c3ccccc13)=N[C@@H](c1ccccc1)[C@H](c1ccccc1)N=2", "TGI": "> 100"}, {"smiles": "c1cc[c]([Sn]([S]c2cccc3cccnc23)([c]2ccccc2)[c]2ccccc2)cc1", "GI50": 0.0433, "TGI": 0.096}, {"smiles": "O=C1CCn2c([nH]c3cccc4cccc2c43)=N1", "TGI": "> 100"}, {"smiles": "O=C(Nc1cc(-c2ccccc2)[nH]n1)c1ccc(Cl)cc1", "GI50": "> 100", "TGI": "> 100"}, {"smiles": "CCOc1cccc2nc3cccc(C(=O)NCCN(C)C)c3nc12", "TGI": 3.53}, {"smiles": "Cc1cc(C)nc(NS(=O)(=O)c2ccc(Nc3c4ccccc4nc4c(C(=O)N5CCN(CCOS(C)(=O)=O)CC5)ccc(Cl)c34)cc2)n1", "TGI": "> 100"}, {"smiles": "Clc1cc(Cl)c2c(Cl)cc(Cl)c3c2c1N=S=N3", "TGI": "> 100"}, {"smiles": "CN1CCN(C)C1c1cccc(C2N(C)CCN2C)c1", "TGI": "> 100"}, {"smiles": "CC(O)CN1C(=O)NC(Cc2ccccc2)C1=O", "note": "(stereo unspecified)", "TGI": "> 100"}, {"smiles": "O=C(c1ccccc1)[C@H]1Nc2cnccc2C2c3ccccc3CC21", "note": "(stereo partly specified)", "TGI": "> 100"}, {"smiles": "CN(C)c1nc(-c2cccs2)n2nc(-c3ccc(Cl)cc3)cc2n1", "GI50": "> 100", "TGI": "> 100"}, {"smiles": "COc1ccc(C(=O)C(C(=O)CCC(=O)Nc2cccc(C(F)(F)F)c2)c2ccccc2)cc1", "note": "(stereo unspecified)", "TGI": "> 100"}, {"smiles": "NC1=NC(=O)C(CC(=O)Nc2ccc([N+](=O)[O-])cc2[N+](=O)[O-])S1", "note": "(stereo unspecified)", "TGI": "> 100"}, {"smiles": "O=C1c2ccccc2-c2cccc3ccc(Cc4ccccc4)c1c23", "TGI": "> 100"}, {"smiles": "COC(=O)/C(=N\\NC(=S)NN)C(C(=O)C(=O)Nc1ccccc1C(N)=O)c1nc2ccccc2[nH]c1=O", "note": "(stereo unspecified)", "TGI": "> 100"}, {"smiles": "CC/C=C\\C/C=C\\C1CC(=O)NCCCNCCCCN1", "note": "(stereo unspecified)", "TGI": "> 100"}, {"smiles": "CC1CCCC(C(=O)/C(=C/c2cccc(Cl)c2)C(=O)C(=O)O)C1", "note": "(stereo unspecified)", "TGI": 25.4}, {"smiles": "CC(=O)c1c(C)n([O-])c2cc(C)c(C)cc2[n+]1=O", "TGI": "> 100"}, {"smiles": "N#CC(C#N)=Cc1cccc(Oc2ccccc2)c1", "TGI": "> 62.8"}, {"smiles": "Cc1ncc([N+](=O)[O-])n1CCNC(=O)CCCCn1ccnc1[N+](=O)[O-]", "TGI": "> 100"}, {"smiles": "COc1ccc(/C=C/C(=O)c2sc(-n3nc(-c4ccccc4)cc3-c3ccccc3)nc2C)cc1OC", "TGI": "> 100"}, {"smiles": "COC(=O)c1c(O)ccc2[nH]c(C)c(C#N)c12", "GI50": 95.1, "TGI": "> 100"}, {"smiles": "NC(CCSCC(F)F)C(=O)O", "note": "(stereo unspecified)", "TGI": "> 100"}, {"smiles": "COC(=O)NC/C=C\\c1nc(CC/C=C\\C(=O)OC2CC3CC(=O)O[C@@H](/C=C/CC(C)C)C[C@@H]4CCC(C)C(C[C@@H](OC)CC(C2)O3)O4)co1", "note": "(stereo partly specified)", "GI50": "< 0.01", "TGI": 19}]}, {"test_system": "HCT-15 colon", "assay": "inhibition of tumour cell growth, NCI panel, 48 h", "units": {"TGI": "µM", "GI50": "µM"}, "values": [{"smiles": "CN(C)C(=S)/N=c1\\ss/c(=N\\S(=O)(=O)c2ccccc2)n1-c1ccccc1", "TGI": "> 100"}, {"smiles": "N#Cc1c(N)c(C(=O)O)nn(-c2cccc(C(F)(F)F)c2)c1=O", "TGI": "> 100"}, {"smiles": "CCOC(=O)Cc1nc(/C(C#N)=C/c2ccco2)[nH]c(=O)c1C#N", "TGI": "> 100"}, {"smiles": "CC1=Nc2c(ccc3c2C(=O)c2ccccc2C3=O)NC(c2ccncc2)C1", "note": "(stereo unspecified)", "TGI": "> 100"}, {"smiles": "Oc1c(Br)cc(CN(Cc2cc(Br)c(O)c(Br)c2)C2CCCCC2)cc1Br", "TGI": "> 100"}, {"smiles": "COc1cc(/C=C\\c2ccc(O)cc2)cc(OC)c1OC", "TGI": "> 100"}, {"smiles": "C=C(COC(C)=O)CC(/C=C(\\C)CCC=C(C)C)OC(C)=O", "note": "(stereo unspecified)", "TGI": "> 100"}, {"smiles": "Cc1sc(C)c(-c2ccc(CO)o2)c1-c1ccc(CO)o1", "GI50": "> 76.6", "TGI": "> 100"}, {"smiles": "CC1(C)CCc2cc3c(cc2O1)OCCC3=O", "TGI": "> 100"}, {"smiles": "Oc1c2c(c(O)c3ccccc13)=N[C@@H](c1ccccc1)[C@H](c1ccccc1)N=2", "TGI": "> 100"}, {"smiles": "c1cc[c]([Sn]([S]c2cccc3cccnc23)([c]2ccccc2)[c]2ccccc2)cc1", "GI50": 0.0196, "TGI": 0.0467}, {"smiles": "O=C1CCn2c([nH]c3cccc4cccc2c43)=N1", "TGI": "> 100"}, {"smiles": "O=C(Nc1cc(-c2ccccc2)[nH]n1)c1ccc(Cl)cc1", "GI50": 4.14, "TGI": "> 100"}, {"smiles": "C=C1CC(COc2cc(Cl)nc(N)n2)C1", "GI50": 33}, {"smiles": "CCOc1cccc2nc3cccc(C(=O)NCCN(C)C)c3nc12", "TGI": 7.47}, {"smiles": "Cc1cc(C)nc(NS(=O)(=O)c2ccc(Nc3c4ccccc4nc4c(C(=O)N5CCN(CCOS(C)(=O)=O)CC5)ccc(Cl)c34)cc2)n1", "TGI": "> 100"}, {"smiles": "Clc1cc(Cl)c2c(Cl)cc(Cl)c3c2c1N=S=N3", "TGI": "> 100"}, {"smiles": "CN1CCN(C)C1c1cccc(C2N(C)CCN2C)c1", "TGI": "> 100"}, {"smiles": "CC(=O)OCCOCBr", "TGI": "> 100"}]}]}
